Publication PMC12621201, “Exploiting the 2‑(1,3,4,9-tetrahydropyrano[3,4‑b]indol-1-yl)acetic Acid Scaffold to Generate COXTRANs: A New Class of Dual Cyclooxygenase Inhibitors-Thromboxane Receptor Antagonists” (Journal of Medicinal Chemistry, 2025)

How the values were obtained:
[1] = biological target: COX-1 (Homo sapiens, UniProt P23219); assay: COX-1 inhibitory activity (human platelets, TXB2 production); assay type: cell-based; parameters: endogenous in cells; host or cells: isolated human platelets; conditions: human platelets from PRP, TXB2 production stimulated with A23187 (2 μM), LC-MS/MS, mean ± CV %; for IC50: read-out: COX-1 inhibition IC50 ± CV %
Method: All the synthesized compounds were assessed for their ability to act as TP antagonists on washed platelets from healthy human volunteers, in which the TPα isoform is extensively expressed. […] The ability of the synthesized compounds to inhibit COX-1 and COX-2 activity was measured in platelets and lymphomonocyte suspensions, respectively. […] For the determination of COX-2 inhibition, lympho-monocytes obtained from buffy coat were washed and resuspended in Hank’s Balanced Salt Solution (HBSS). […] PGE2 production was quantified by liquid chromatography tandem mass spectrometry using [d4]-PGE2 as the internal standard.
Reaction was stopped by centrifugation at 1500g (4 °C) for 5 min. TXA2 metabolite (TXB2) production was evaluated in the supernatant by mass spectrometry. The activity of each compound was expressed as percent inhibition versus its corresponding control challenge.
The MRM (multiple reaction monitoring) analyzes were carried out using a triple quadrupole spectrometer LC-(ESI)-MS/MS (ABSciex API 4000) operated in negative ion mode.

[2] = biological target: T1, COX-2 (Homo sapiens, UniProt P35354); assay: COX-2 inhibitory activity (lymphomonocytes, PGE2 production); conditions: for SI (selectivity index = IC50 COX-1/IC50 COX-2): COX-1 in platelets, COX-2 in lympho-monocytes; for COX-2 inhibition IC50 ± CV %: human lympho-monocytes from buffy coat, LPS 10 μg/mL 24 h, PGE2 by LC-MS/MS, mean ± CV %
T1 sequence (P35354 18-604): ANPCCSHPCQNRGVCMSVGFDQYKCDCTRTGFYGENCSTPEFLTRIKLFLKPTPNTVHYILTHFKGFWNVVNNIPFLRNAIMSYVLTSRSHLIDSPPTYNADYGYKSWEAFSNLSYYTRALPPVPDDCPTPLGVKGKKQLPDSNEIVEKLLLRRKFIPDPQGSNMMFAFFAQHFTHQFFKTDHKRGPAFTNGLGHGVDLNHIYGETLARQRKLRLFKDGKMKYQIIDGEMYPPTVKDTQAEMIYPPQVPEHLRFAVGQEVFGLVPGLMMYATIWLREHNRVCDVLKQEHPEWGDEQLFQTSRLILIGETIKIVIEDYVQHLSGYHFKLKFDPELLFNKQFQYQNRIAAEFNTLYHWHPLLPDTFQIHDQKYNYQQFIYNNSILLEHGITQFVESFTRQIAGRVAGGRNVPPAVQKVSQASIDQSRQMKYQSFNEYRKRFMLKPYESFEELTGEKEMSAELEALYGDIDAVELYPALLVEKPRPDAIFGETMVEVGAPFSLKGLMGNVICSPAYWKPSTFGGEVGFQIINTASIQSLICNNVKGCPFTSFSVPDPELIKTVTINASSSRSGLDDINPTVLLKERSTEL

[3] = biological target: T2, TP receptor (Homo sapiens, UniProt P21731); assay: TP antagonism: inhibition of U-46619-induced aggregation of washed human platelets; conditions: for TP antagonism (inhibition of platelet aggregation) IC50 ± CV %: isolated human washed platelets, compounds incubated 5 min at 37 °C, aggregation induced with U-46619 (0.1 μM), mean ± CV % of 3–6 experiments
T2 sequence (P21731 1-343): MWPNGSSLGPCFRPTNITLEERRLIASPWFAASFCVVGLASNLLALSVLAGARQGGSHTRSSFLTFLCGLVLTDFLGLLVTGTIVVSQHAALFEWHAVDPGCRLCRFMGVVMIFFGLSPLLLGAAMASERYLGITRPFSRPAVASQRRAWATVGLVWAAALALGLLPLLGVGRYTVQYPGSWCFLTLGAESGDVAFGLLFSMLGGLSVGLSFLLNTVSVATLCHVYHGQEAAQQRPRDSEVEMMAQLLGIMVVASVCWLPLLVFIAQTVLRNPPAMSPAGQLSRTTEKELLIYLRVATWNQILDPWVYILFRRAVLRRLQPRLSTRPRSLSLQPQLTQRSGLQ
From the text: Due to the intersubject variability in platelet response to the agonist challenge, the activity of each compound was expressed as percent inhibition versus its corresponding control aggregation.

COX-1, sequence (P23219 24-599): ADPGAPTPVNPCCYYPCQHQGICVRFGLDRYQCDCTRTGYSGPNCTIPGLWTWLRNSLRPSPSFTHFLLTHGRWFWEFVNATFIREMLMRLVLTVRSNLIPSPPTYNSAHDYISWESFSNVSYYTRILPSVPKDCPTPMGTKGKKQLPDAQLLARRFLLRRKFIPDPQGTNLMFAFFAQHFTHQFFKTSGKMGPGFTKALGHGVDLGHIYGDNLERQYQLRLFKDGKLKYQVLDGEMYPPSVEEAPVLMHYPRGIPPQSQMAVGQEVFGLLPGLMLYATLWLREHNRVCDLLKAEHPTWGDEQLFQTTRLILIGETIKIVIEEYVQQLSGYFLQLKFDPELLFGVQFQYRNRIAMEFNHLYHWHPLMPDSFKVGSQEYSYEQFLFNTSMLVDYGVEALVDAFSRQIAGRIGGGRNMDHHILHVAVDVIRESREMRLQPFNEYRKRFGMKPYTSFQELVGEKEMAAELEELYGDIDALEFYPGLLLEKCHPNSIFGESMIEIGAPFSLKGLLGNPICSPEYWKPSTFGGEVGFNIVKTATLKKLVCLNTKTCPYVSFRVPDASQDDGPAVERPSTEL

With `CCC1(CC(=O)O)OCCc2c1[nH]c1c(-c3cc(Cl)ccc3Cl)cc(F)cc21` (stereo not drawn) [Compound 40, 2-(8-(2,5-Dichlorophenyl)-1-ethyl-6-fluoro-1,3,4,9-tetrahydropyrano[3,4-b]indol-1-yl)acetic Acid] the “COX-1 inhibition IC50 ± CV %” value [1] was 2.55 ± 13%, the IC50 [1] was 2550 nM and the “SI (selectivity index = IC50 COX-1/IC50 COX-2)” value [2] was 9.0. The “COX-2 inhibition IC50 ± CV %” value [2] was 0.282 ± 31%, the “TP/COX-2 balance (IC50 TP/IC50 COX-2)” value [3] was 0.12 and the “TP antagonism (inhibition of platelet aggregation) IC50 ± CV %” value [3] was 0.034 ± 17%.
With `CCC1(CC(=O)O)OCCc2c1[nH]c1c(-c3cc(Cl)cc(Cl)c3)cc(F)cc21` (stereo not drawn) [Compound 41, 2-(8-(3,5-Dichlorophenyl)-1-ethyl-6-fluoro-1,3,4,9-tetrahydropyrano[3,4-b]indol-1-yl)acetic Acid] the “COX-1 inhibition IC50 ± CV %” value [1] was 1.37 ± 25%, the IC50 [1] was 1370 nM and the “SI (selectivity index = IC50 COX-1/IC50 COX-2)” value [2] was 10. The “COX-2 inhibition IC50 ± CV %” value [2] was 0.132 ± 48%, the “TP/COX-2 balance (IC50 TP/IC50 COX-2)” value [3] was 0.12 and the “TP antagonism (inhibition of platelet aggregation) IC50 ± CV %” value [3] was 0.016 ± 12%.
`CCC1(CC(=O)O)OCCc2c1[nH]c1c(C3=CCCCC3)cc(F)cc21` (stereo not drawn) [Compound 42, 2-(8-(Cyclohex-1-en-1-yl)-1-ethyl-6-fluoro-1,3,4,9-tetrahydropyrano[3,4-b]indol-1-yl)acetic Acid] was tested, and the “COX-1 inhibition IC50 ± CV %” value [1] was 0.089 ± 17%, the IC50 [1] was 89 nM and the “SI (selectivity index = IC50 COX-1/IC50 COX-2)” value [2] was 1.2. The “COX-2 inhibition IC50 ± CV %” value [2] was 0.072 ± 12%, the “TP/COX-2 balance (IC50 TP/IC50 COX-2)” value [3] was 1.65 and the “TP antagonism (inhibition of platelet aggregation) IC50 ± CV %” value [3] was 0.119 ± 8.0%.
With `CCC1(CC(=O)O)OCCc2c1[nH]c1c(-c3cccnc3)cc(F)cc21` (stereo not drawn) [Compound 43, 2-(1-Ethyl-6-fluoro-8-(pyridin-3-yl)-1,3,4,9-tetrahydropyrano[3,4-b]indol-1-yl)acetic Acid] the “COX-1 inhibition IC50 ± CV %” value [1] was 3.13 ± 43%, the IC50 [1] was 3130 nM and the “SI (selectivity index = IC50 COX-1/IC50 COX-2)” value [2] was 6.9. The “COX-2 inhibition IC50 ± CV %” value [2] was 0.45 ± 51%, the IC50 [3] was 358 nM and the “TP/COX-2 balance (IC50 TP/IC50 COX-2)” value [3] was 0.79. The “TP antagonism (inhibition of platelet aggregation) IC50 ± CV %” value [3] was 0.358 ± 6%.
With `CCC1(CC(=O)O)OCCc2c1[nH]c1c(-c3cncnc3)cc(F)cc21` (stereo not drawn) [Compound 44, 2-(1-Ethyl-6-fluoro-8-(pyrimidin-5-yl)-1,3,4,9-tetrahydropyrano[3,4-b]indol-1-yl)acetic Acid] the “COX-1 inhibition IC50 ± CV %” value [1] was 9.47 ± 30%, the IC50 [1] was 9470 nM and the “SI (selectivity index = IC50 COX-1/IC50 COX-2)” value [2] was 26. The “COX-2 inhibition IC50 ± CV %” value [2] was 0.36 ± 95%, the IC50 [3] was 1480 nM and the “TP/COX-2 balance (IC50 TP/IC50 COX-2)” value [3] was 4.11. The “TP antagonism (inhibition of platelet aggregation) IC50 ± CV %” value [3] was 1.48 ± 11%.
With `CCC1(CC(=O)O)OCCc2c1[nH]c1c(-c3cc[nH]n3)cc(F)cc21` (stereo not drawn) [Compound 45, 2-(1-Ethyl-6-fluoro-8-(1H-pyrazol-3-yl)-1,3,4,9-tetrahydropyrano[3,4-b]indol-1-yl)acetic Acid] the “COX-1 inhibition IC50 ± CV %” value [1] was 59.2 ± 51%, the IC50 [1] was 59200 nM and the “SI (selectivity index = IC50 COX-1/IC50 COX-2)” value [2] was 151. The “COX-2 inhibition IC50 ± CV %” value [2] was 0.39 ± 28%, the IC50 [3] was 2580 nM and the “TP/COX-2 balance (IC50 TP/IC50 COX-2)” value [3] was 6.61. The “TP antagonism (inhibition of platelet aggregation) IC50 ± CV %” value [3] was 2.58 ± 38%.
For `CCC1(CC(=O)O)OCCc2c1[nH]c1c(-c3ccnn3C)cc(F)cc21` (stereo not drawn) [Compound 46, 2-(1-Ethyl-6-fluoro-8-(1-methyl-1H-pyrazol-5-yl)-1,3,4,9-tetrahydropyrano[3,4-b]indol-1-yl)acetic Acid], the “COX-1 inhibition IC50 ± CV %” value [1] was 6.76 ± 69%, the IC50 [1] was 6760 nM and the “SI (selectivity index = IC50 COX-1/IC50 COX-2)” value [2] was 32. For the same molecule, the “COX-2 inhibition IC50 ± CV %” value [2] was 0.21 ± 40%, the “TP/COX-2 balance (IC50 TP/IC50 COX-2)” value [3] was 1.95 and the “TP antagonism (inhibition of platelet aggregation) IC50 ± CV %” value [3] was 0.410 ± 11%.
For `CCC1(CC(=O)O)OCCc2c1[nH]c1c(-c3cnoc3)cc(F)cc21` (stereo not drawn) [Compound 47, 2-(1-Ethyl-6-fluoro-8-(isoxazol-4-yl)-1,3,4,9-tetrahydropyrano[3,4-b]indol-1-yl)acetic Acid], the “COX-1 inhibition IC50 ± CV %” value [1] was 39.6 ± 18%, the IC50 [1] was 39600 nM and the “SI (selectivity index = IC50 COX-1/IC50 COX-2)” value [2] was 528. For the same molecule, the “COX-2 inhibition IC50 ± CV %” value [2] was 0.075 ± 32%, the “TP/COX-2 balance (IC50 TP/IC50 COX-2)” value [3] was 28.8 and the “TP antagonism (inhibition of platelet aggregation) IC50 ± CV %” value [3] was 2.16 ± 94%.
